Source: patent US9359308B2, “Pyrazine kinase inhibitors” (Portola Pharmaceuticals, Inc., priority 2011, dated 2016)
pIC50: −log10 of the molar value.

Biological target: T1, full length active recombinant SYK enzyme (Homo sapiens, UniProt P43405)
T1 construct: full length active recombinant SYK enzyme (Millipore, Calif.); purchased Millipore
Assay: Inhibition of Syk tyrosine phosphorylation activity (LANCE TR-FRET kinase assay)
Assay type: biochemical
Conditions: activity in the Syk assays, class symbols
Procedure, shortened: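 1 nM full-length active recombinant SYK phosphorylated 550 nM biotin-DEEDYESP-OH with 100 μM ATP in 50 mM Tris pH 7.5, 5 mM MgCl2, 1 mM DTT and 3% DMSO for 1 h at room temperature. After EDTA quench, Eu-anti-phosphotyrosine/SA-APC TR-FRET was read after 1 h. IC50s came from non-linear regression.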

Compound	pIC50
CC(C)C[C@@H](Nc1cnc(C(N)=O)c(Nc2ccc(N(C)C)nc2)n1)C(N)=O [Example 313, (R)-5-(1-amino-4-methyl-1-oxopentan-2-ylamino)-3-(6-(dimethylamino)pyridin-3-ylamino)pyrazine-2-carboxamide]	7.00 to 8.00
CC[C@@H](Nc1cnc(C(N)=O)c(Nc2cnc(N(C)C)c(C)c2)n1)C(N)=O [Example 314, (R)-5-(1-amino-1-oxobutan-2-ylamino)-3-(6-(dimethylamino)-5-methylpyridin-3-ylamino)pyrazine-2-carboxamide]	6.00 to 7.00
CC[C@@H](Nc1cnc(C(N)=O)c(Nc2ccc(OC)nc2)n1)C(N)=O [Example 317, (R)-5-(1-amino-1-oxobutan-2-ylamino)-3-(6-methoxypyridin-3-ylamino)pyrazine-2-carboxamide]	7.00 to 8.00
CC(C)C[C@@H](Nc1cnc(C(N)=O)c(Nc2ccc(C(=O)N3CC(C#N)C3)nc2)n1)C(N)=O [Example 321, (R)-5-(1-amino-4-methyl-1-oxopentan-2-ylamino)-3-(6-(3-cyanoazetidine-1-carbonyl)pyridin-3-ylamino)pyrazine-2-carboxamide]	8.00 to 9.00
CC[C@@H](Nc1cnc(C(N)=O)c(Nc2cncc(OC)c2)n1)C(N)=O [Example 322, (R)-5-(1-amino-1-oxobutan-2-ylamino)-3-(5-methoxypyridin-3-ylamino)pyrazine-2-carboxamide]	6.00 to 7.00
COc1cncc(Nc2nc(N[C@H](CC(C)C)C(N)=O)cnc2C(N)=O)c1 [Example 323, (R)-5-(1-amino-4-methyl-1-oxopentan-2-ylamino)-3-(5-methoxypyridin-3-ylamino)pyrazine-2-carboxamide]	8.00 to 9.00
CC(C)[C@@H](Nc1cnc(C(N)=O)c(Nc2ccc(OCC(F)(F)F)nc2)n1)C(N)=O [Example 327, (R)-5-(1-amino-3-methyl-1-oxobutan-2-ylamino)-3-(6-(2,2,2-trifluoroethoxy)pyridin-3-ylamino)pyrazine-2-carboxamide]	6.00 to 7.00
Cc1cc(Nc2nc(N[C@@H]3CCCC[C@@H]3N)cnc2C(N)=O)sn1 [Example 328, 5-((1R,2S)-2-aminocyclohexylamino)-3-(3-methylisothiazol-5-ylamino)pyrazine-2-carboxamide]	> 9.00
CC[C@@H](Nc1cnc(C(N)=O)c(Nc2ccc(C(=O)N3CC(C#N)C3)nc2)n1)C(N)=O [Example 329, (R)-5-(1-amino-1-oxobutan-2-ylamino)-3-(6-(3-cyanoazetidine-1-carbonyl)pyridin-3-ylamino)pyrazine-2-carboxamide]	8.00 to 9.00
COc1ccc(Nc2nc(N[C@@H]3CCCC(F)(F)[C@@H]3N)cnc2C(N)=O)cn1 [Example 330, 5-((1R,2R)-2-amino-3,3-difluorocyclohexylamino)-3-(6-methoxypyridin-3-ylamino)pyrazine-2-carboxamide]	6.00 to 7.00
COc1ncc(Nc2nc(N[C@@H]3CCCC(F)(F)[C@@H]3N)cnc2C(N)=O)cc1C [Example 332, 5-((1R,2R)-2-amino-3,3-difluorocyclohexylamino)-3-(6-methoxy-5-methylpyridin-3-ylamino)pyrazine-2-carboxamide]	7.00 to 8.00
COc1cncc(Nc2nc(N[C@@H]3CCCC(F)(F)[C@@H]3N)cnc2C(N)=O)c1 [Example 333, 5-((1R,2R)-2-amino-3,3-difluorocyclohexylamino)-3-(5-methoxypyridin-3-ylamino)pyrazine-2-carboxamide]	6.00 to 7.00
CC(C)C[C@@H](Nc1cnc(C(N)=O)c(Nc2ccc(N3CCC3)nc2)n1)C(N)=O [Example 334, (R)-5-(1-amino-4-methyl-1-oxopentan-2-ylamino)-3-(6-(azetidin-1-yl)pyridin-3-ylamino)pyrazine-2-carboxamide]	7.00 to 8.00
CC(C)C[C@@H](Nc1cnc(C(N)=O)c(Nc2ccnc(N(C)C)c2)n1)C(N)=O [Example 335, (R)-5-(1-amino-4-methyl-1-oxopentan-2-ylamino)-3-(2-(dimethylamino)pyridin-4-ylamino)pyrazine-2-carboxamide]	8.00 to 9.00
CN(C)c1nc2ccc(Nc3nc(N[C@@H]4CCCC(F)(F)[C@@H]4N)cnc3C(N)=O)cc2o1 [Example 336, 5-((1R,2R)-2-amino-3,3-difluorocyclohexylamino)-3-(2-(dimethylamino)benzo[d]oxazol-6-ylamino)pyrazine-2-carboxamide]	8.00 to 9.00
N#Cc1ccc(Nc2nc(N[C@@H]3CCCC[C@@H]3N)cnc2C(N)=O)cn1 [Example 338, 5-((1R,2S)-2-aminocyclohexylamino)-3-(6-cyanopyridin-3-ylamino)pyrazine-2-carboxamide]	7.00 to 8.00

Second part, the molecule after the results:

pIC50	Compound
7.00 to 8.00	COc1cc(Nc2nc(N[C@@H](C(N)=O)C(C)C)cnc2C(N)=O)ccn1 [Example 315, (R)-5-(1-amino-3-methyl-1-oxobutan-2-ylamino)-3-(2-methoxypyridin-4-ylamino)pyrazine-2-carboxamide]
7.00 to 8.00	CC[C@@H](Nc1cnc(C(N)=O)c(Nc2ccc(OCC(F)(F)F)nc2)n1)C(N)=O [Example 316, (R)-5-(1-amino-1-oxobutan-2-ylamino)-3-(6-(2,2,2-trifluoroethoxy)pyridin-3-ylamino)pyrazine-2-carboxamide]
7.00 to 8.00	CC[C@@H](Nc1cnc(C(N)=O)c(Nc2ccc3nc(N(C)C)oc3c2)n1)C(N)=O [Example 318, (R)-5-(1-amino-1-oxobutan-2-ylamino)-3-(2-(dimethylamino)benzo[d]oxazol-6-ylamino)pyrazine-2-carboxamide]
7.00 to 8.00	CC[C@@H](Nc1cnc(C(N)=O)c(Nc2ccc(N3CCC3)nc2)n1)C(N)=O [Example 319, (R)-5-(1-amino-1-oxobutan-2-ylamino)-3-(6-(azetidin-1-yl)pyridin-3-ylamino)pyrazine-2-carboxamide]
< 6.00	CC[C@@H](Nc1cnc(C(N)=O)c(Nc2cc(C)ccn2)n1)C(N)=O [Example 320, (R)-5-(1-amino-1-oxobutan-2-ylamino)-3-(4-methylpyridin-2-ylamino)pyrazine-2-carboxamide]
8.00 to 9.00	CN1C(=O)Cc2cc(Nc3nc(N[C@@H]4CCCC[C@@H]4N)cnc3C(N)=O)ccc21 [Example 324, 5-((1R,2S)-2-aminocyclohexylamino)-3-(1-methyl-2-oxoindolin-5-ylamino)pyrazine-2-carboxamide]
8.00 to 9.00	CN(C)c1nc2ccc(Nc3nc(N[C@@H]4CCCC[C@@H]4N)cnc3C(N)=O)cc2o1 [Example 325, 5-((1R,2S)-2-aminocyclohexylamino)-3-(2-(dimethylamino)benzo[d]oxazol-6-ylamino)pyrazine-2-carboxamide]
7.00 to 8.00	COc1ccc(Nc2nc(N[C@@H](C(N)=O)C(C)C)cnc2C(N)=O)cn1 [Example 326, (R)-5-(1-amino-3-methyl-1-oxobutan-2-ylamino)-3-(6-methoxypyridin-3-ylamino)pyrazine-2-carboxamide]
7.00 to 8.00	COc1cc(Nc2nc(N[C@@H]3CCCC(F)(F)[C@@H]3N)cnc2C(N)=O)ccn1 [Example 331, 5-((1R,2R)-2-amino-3,3-difluorocyclohexylamino)-3-(2-methoxypyridin-4-ylamino)pyrazine-2-carboxamide]
7.00 to 8.00	NC(=O)c1ncc(N[C@@H]2CCCC(F)(F)[C@@H]2N)nc1Nc1ccc2nc(N3CCC3)oc2c1 [Example 337, 5-((1R,2R)-2-amino-3,3-difluorocyclohexylamino)-3-(2-(azetidin-1-yl)benzo[d]oxazol-6-ylamino)pyrazine-2-carboxamide]
